Data as given in patent US20240308985A1 (Psy Therapeutics, Inc., priority 2021, published 2024).
Where two headings read alike, the source gives them in different places.

Molecular target: Monoacylglycerol Lipase (MAGL) (Homo sapiens (Human), UniProt Q99685)
Assay: MAGL inhibition potency (IC50) assay with 4NPA substrate
Type: biochemical
Source text: The potency of certain compounds for inhibiting MAGL were obtained using the following assays. The monoacylglycerol lipase inhibitor screening assay kit from Cayman Chemical was used to measure the MAGL potency for the compounds in Table 6 and Table 7. Cayman's Monoacylglycerol Lipase Inhibitor Screening Assay provides a method for screening human MAGL inhibitors. MAGL hydrolyzes 4-nitrophenylacetate resulting in a yellow product, 4-nitrophenol, with an absorbance of 405-412 nm. MAGL Inhibition was measured by the following assay. Monoacylglycerol Lipase (MAGL) inhibition was measured using recombinant MAGL enzyme (aa 2-303 RBC, internal preparation) and the substrate 4-Nitrophenyl acetate (4NPA) (Sigma-Aldrich, N8130). Hydrolysis of the substrate in the presence of the enzyme was measured by absorbance at 405 nm. 10 μL of assay buffer (10 mM Tris pH 7.5, 1 mM EDTA, 0.9% DMSO) was added to a black 384-well non-binding plate with clear bottom (Greiner, 781906) for each reaction. […] DMSO control wells were included for reference. A 10.8 nM (1.8×) MAGL mix in assay buffer was prepared, with 25 μL added to each reaction well, for a final assay concentration of 6 nM. No enzyme wells received 25 μL of buffer. Plate was incubated at room temperature for 30 minutes. 35 mM solution of 4NPA in methanol was prepared daily. A 4.5×4NPA substrate solution was prepared in assay buffer and 10 μL was added to each reaction well, for a final assay concentration of 0.25 mM. Plate was spun for 1 minute at 1000 rpm before measuring absorbance using a CLARIOstar plate reader (BMG Labtech). A kinetic reading at 405 nm was done every minute for 30 minutes. Data was analyzed using the linear slope of the reaction progress curve and the average of the no-enzyme wells (background) was subtracted from the data. The background-subtracted slope data was converted to % activity using the average of wells with enzyme and DMSO vehicle. IC50s were calculated using GraphPad software (Sigmoidal dose response, variable slope equation). […] Table 8 provides potency measurements of MAGL inhibition measured using the Potency Assay of Example 22 above, with the following modifications described in Table C. [table]

[1] = Method 2: Cayman Chemical MAGL enzyme, 10 nM, read-out: MAGL Potency (Detection Method)
[2] = Method 2: Cayman Chemical MAGL enzyme, 10 nM, read-out: Potency (MAGL inhibition)
[3] = Methods 2, 3, read-out: MAGL Potency (Detection Method)
[4] = Method 4: Cayman Chemical MAGL enzyme, 15 nM, read-out: MAGL Potency (Detection Method)
[5] = Method 14: Reaction Biology MAGL enzyme, 6 nM, read-out: MAGL Potency (Detection Method)

Monoacylglycerol Lipase (MAGL), sequence (Q99685 2-303): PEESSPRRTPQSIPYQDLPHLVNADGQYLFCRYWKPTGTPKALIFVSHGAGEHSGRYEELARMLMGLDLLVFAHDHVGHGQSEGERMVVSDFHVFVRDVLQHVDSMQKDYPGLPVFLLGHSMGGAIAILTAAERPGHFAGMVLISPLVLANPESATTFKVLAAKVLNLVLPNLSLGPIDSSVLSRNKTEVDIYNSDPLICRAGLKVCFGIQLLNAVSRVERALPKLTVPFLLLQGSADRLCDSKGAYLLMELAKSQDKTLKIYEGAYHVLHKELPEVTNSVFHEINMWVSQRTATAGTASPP

`Cc1cnn(C2CC3(C2)CN(C(=O)c2cc(O)ccc2F)C3)c1-c1ccccc1C(F)(F)F` (atropisomer, axis not shown; (M)) [Compound 410, 4-fluoro-3-{6-[(4M)-4-methyl-5-[2-(trifluoromethyl)phenyl]-1H-pyrazol-1-yl]-2-azaspiro[3.3]heptane-2-carbonyl}phenol] was tested, and the IC50 (Method 6: Reaction Biology MAGL enzyme, 6 nM, read-out: MAGL Potency (Detection Method)) was 50 to 150 nM.
For `Cc1cc(C2=CC3(C2)CN(C(=O)c2cc(O)ccc2F)C3)n(-c2ccccc2C)n1` [Compound 120, (2-fluoro-5-hydroxyphenyl)(6-(3-methyl-1-(o-tolyl)-1H-pyrazol-5-yl)-2-azaspiro[3.3]hept-5-en-2-yl)methanone], the IC50 [1] was 150 to 500 nM.
With `Cc1cc(C2CC3(C2)CN(C(=O)c2cc(O)c(F)cc2F)C3)n(-c2ccccc2C)n1` [Compound 126, (2,4-difluoro-5-hydroxyphenyl)(6-(3-methyl-1-(o-tolyl)-1H-pyrazol-5-yl)-2-azaspiro[3.3]heptan-2-yl)methanone] the IC50 (Methods 1, 2, 3, read-out: MAGL Potency (Detection Method)) was < 50 nM.
For `Cc1cc(C2CC3(C2)CN(C(=O)c2cc(O)ccc2C#N)C3)n(-c2ccccc2C)n1` [Compound 128, 4-hydroxy-2-({6-[3-methyl-1-(o-tolyl)-5-pyrazolyl]-2-aza-2-spiro[3.3]heptyl}carbonyl)benzonitrile], the IC50 (Methods 1, 2, read-out: MAGL Potency (Detection Method)) was < 50 nM.
`Cc1cc(C2CC3(C2)CN(C(=O)c2cc(O)ccc2Cl)C3)n(-c2ccccc2C)n1` [Compound 140, (2-chloro-5-hydroxyphenyl) (6-(3-methyl-1-(o-tolyl)-1H-pyrazol-5-yl)-2-azaspiro [3.3]heptan-2-yl) methanone] was tested, and the IC50 [1] was 50 to 150 nM.
`Cc1cc(C2CC3(C2)CN(C(=O)c2ccc(F)c(O)c2)C3)n(-c2ccccc2C)n1` [Compound 141, (4-fluoro-3-hydroxyphenyl)(6-(3-methyl-1-(o-tolyl)-1H-pyrazol-5-yl)-2-azaspiro[3.3]heptan-2-yl)methanone] showed an IC50 (Method 1: Reaction Biology MAGL enzyme, 6 nM, read-out: MAGL Potency (Detection Method)) of 50 to 150 nM and an IC50 [1] of 150 to 500 nM.
With `COc1cc(F)ccc1C(=O)N1CC2(CC(c3cc(C)nn3-c3ccccc3C)C2)C1` [Compound 142, (4-fluoro-2-methoxyphenyl)(6-(3-methyl-1-(o-tolyl)-1H-pyrazol-5-yl)-2-azaspiro[3.3]heptan-2-yl)methanone] the IC50 [1] was 500 to 1000 nM.
`COc1ccccc1C(=O)N1CC2(CC(c3cc(C)nn3-c3ccccc3C)C2)C1` [Compound 143, (2-methoxyphenyl)(6-(3-methyl-1-(o-tolyl)-1H-pyrazol-5-yl)-2-azaspiro[3.3]heptan-2-yl)methanone] gave an IC50 [1] of 1000 to 5100 nM.
In the case of `Cc1cc(C2CC3(C2)CN(C(=N)c2cc(O)ccc2F)C3)n(-c2ccccc2C)n1` [Compound 144], the IC50 [2] is reported as > 10000 nM.
In the case of `CCOc1ccccc1C(=O)N1CC2(CC(c3cc(C)nn3-c3ccccc3C)C2)C1` [Compound 145, (2-ethoxyphenyl)(6-(3-methyl-1-(o-tolyl)-1H-pyrazol-5-yl)-2-azaspiro[3.3]heptan-2-yl)methanone], the IC50 [1] is reported as 1000 to 5100 nM.
`CCOc1cc(F)ccc1C(=O)N1CC2(CC(c3cc(C)nn3-c3ccccc3C)C2)C1` [Compound 146, (2-ethoxy-4-fluorophenyl){6-[3-methyl-1-(o-tolyl)-5-pyrazolyl]-2-aza-2-spiro[3.3]heptyl}methanone] was tested, and the IC50 [1] was 150 to 500 nM and the IC50 (Method 3: Reaction Biology MAGL enzyme, 10 nM, read-out: MAGL Potency (Detection Method)) was < 50 nM.
In the case of `COc1cc(F)ccc1CN1CC2(CC(c3cc(C)nn3-c3ccccc3C)C2)C1` [Compound 149], the IC50 [2] is reported as > 10000 nM.
For `Cc1cc(C2CC3(C2)CN(Cc2cc(O)ccc2F)C3)n(-c2ccccc2C)n1` [Compound 150], the IC50 (read-out: Potency (MAGL inhibition)) was > 10000 nM.
In the case of `Cc1cc(C2CC3(C2)CN(C2CCOc4ccccc42)C3)n(-c2ccccc2C)n1` (stereo not shown) [Compound 152], the IC50 [2] is reported as > 10000 nM.
With `Cc1cc(C2CC3(C2)CN([C@@H]2CCOc4ccccc42)C3)n(-c2ccccc2C)n1` [Compound 153] the IC50 [2] was > 10000 nM.
In the case of `Cc1cc(C2CC3(C2)CN([C@H]2COc4ccccc42)C3)n(-c2ccccc2C)n1` [Compound 154], the IC50 [2] is reported as > 10000 nM.
With `Cc1cc(C2CC3(C2)CN([C@@H]2COc4ccccc42)C3)n(-c2ccccc2C)n1` [Compound 155] the IC50 [2] was > 10000 nM.
`Cc1cc(C2CC3(C2)CN(C(=O)c2ccc(F)cc2OC(C)C)C3)n(-c2ccccc2C)n1` [Compound 177, (4-fluoro-2-isopropoxyphenyl)(6-(3-methyl-1-(o-tolyl)-1H-pyrazol-5-yl)-2-azaspiro[3.3]heptan-2-yl)methanone] was tested, and the IC50 [1] was 50 to 150 nM.
`Cc1cc(C2CC3(C2)CN(C(=O)c2ccoc2)C3)n(-c2ccccc2C)n1` [Compound 179] was tested, and the IC50 [2] was > 10000 nM.
For `Cc1cc(C2CC3(C2)CN(C(=O)c2cccn2C)C3)n(-c2ccccc2C)n1` [Compound 181], the IC50 [2] was > 10000 nM.
`Cc1cc(C2CC3(C2)CN(C(=O)c2ccn(C)c2)C3)n(-c2ccccc2C)n1` [Compound 182] was tested, and the IC50 [2] was > 10000 nM.
For `Cc1cc(C2CC3(C2)CN(C(=O)c2ccc[nH]2)C3)n(-c2ccccc2C)n1` [Compound 183], the IC50 [2] was > 10000 nM.
With `Cc1cc(C2CC3(C2)CN(C(=O)c2cc[nH]c2)C3)n(-c2ccccc2C)n1` [Compound 184] the IC50 [2] was > 10000 nM.
`Cc1ccccc1N(C)C(=O)C1CC2(C1)CN(C(=O)c1cc(O)ccc1F)C2` [Compound 185, 2-(2-Fluoro-5-hydroxybenzoyl)-N-Methyl-N-(o-tolyl)-2-azaspiro [3.3]heptane-6-carboxamide] gave an IC50 [3] of 50 to 150 nM.
With `Cc1ccccc1NC(=O)C1CC2(C1)CN(C(=O)c1cc(O)ccc1F)C2` [Compound 186, N-o-tolyl-2-(2-fluoro-5-hydroxybenzoyl)-2-aza-6-spiro[3.3]heptanecarboxamide] the IC50 [1] was 1000 to 5100 nM.
In the case of `CCOc1cc(F)ccc1C(=O)N1CC2(CC(C(=O)N(C)c3ccccc3C)C2)C1` [Compound 187, 2-(2-Ethoxy-4-fluorobenzoyl)-N-Methyl-N-(o-tolyl)-2-azaspiro [3.3] heptane-6-carboxamide], the IC50 [1] is reported as 150 to 500 nM and the IC50 [3] is reported as 1000 to 5100 nM.
In the case of `CCOc1cc(F)ccc1C(=O)N1CC2(CC(C(=O)Nc3ccccc3C)C2)C1` [Compound 188], the IC50 [2] is reported as > 10000 nM.
In the case of `CCOc1cc(F)ccc1C(=O)N1CC2(CC(C(=O)N(C)c3cccnc3C)C2)C1` [Compound 198], the IC50 (Method 4: Cayman Chemical MAGL enzyme, 15 nM, read-out: Potency (MAGL inhibition)) is reported as > 10000 nM.
`CCOc1cc(F)ccc1C(=O)N1CC2(CC(C(=O)N(CC)c3ccccc3C)C2)C1` [Compound 203, N-ethyl-N-o-tolyl-2-(2-ethoxy-4-fluorobenzoyl)-2-aza-6-spiro[3.3]heptanecarboxamide] was tested, and the IC50 [4] was 150 to 500 nM.
`CCOc1cc(F)ccc1C(=O)N1CC2(CC(C(=O)N(C)c3ccccc3C(C)C)C2)C1` [Compound 205, N-o-cumenyl-N-methyl-2-(2-ethoxy-4-fluorobenzoyl)-2-aza-6-spiro[3.3]heptanccarboxamide] showed an IC50 [4] of 500 to 1000 nM.
`CCOc1cc(F)ccc1C(=O)N1CC2(CC(C(=O)N(C)c3ccccc3Cl)C2)C1` [Compound 206, N-o-chlorophenyl-N-methyl-2-(2-ethoxy-4-fluorobenzoyl)-2-aza-6-spiro[3.3]heptanecarboxamide] gave an IC50 [4] of 1000 to 5100 nM.
For `Cc1cc(C2CC3(C2)CN(C(=O)c2cc(O)ccc2F)C3)n(-c2cc(F)ccc2C)n1` [Compound 365, (2-fluoro-5-hydroxyphenyl){6-[1-(5-fluoro-2-tolyl)-3-methyl-5-pyrazolyl]-2-aza-2-spiro[3.3]heptyl}methanone], the IC50 [5] was < 50 nM.
For `Cc1cc(C2CC3(C2)CN(C(=O)c2cc(O)ccc2F)C3)n(-c2ccccc2C(F)(F)F)n1` [Compound 366, (2-fluoro-5-hydroxyphenyl)(6-{3-methyl-1-[o-(trifluoromethyl)phenyl]-5-pyrazolyl}-2-aza-2-spiro[3.3]heptyl)methanone], the IC50 [5] was < 50 nM.
For `Cc1cc(C2CC3(C2)CN(C(=O)c2cc4c(cc2F)CCO4)C3)n(-c2ccccc2C)n1` [Compound 368], the IC50 (Method 14: Reaction Biology MAGL enzyme, 6 nM, read-out: Potency (MAGL inhibition)) was > 10000 nM.
`Cc1cc(C2CC3(C2)CN(C(=O)c2c(F)ccc(O)c2C)C3)n(-c2ccccc2C)n1` [Compound 370] gave an IC50 [5] of 500 to 1000 nM.
`Cc1cc(C2CC3(C2)CN(C(=O)c2cc(O)c(C)cc2F)C3)n(-c2ccccc2C)n1` [Compound 371, (2-fluoro-5-hydroxy-4-tolyl){6-[3-methyl-1-(o-tolyl)-5-pyrazolyl]-2-aza-2-spiro[3.3]heptyl}methanone] was tested, and the IC50 [5] was 50 to 150 nM.
For `Cc1ccccc1-c1c(C)cnn1C1CC2(C1)CN(C(=O)c1cc(O)ccc1F)C2` [Compound 373, (2-fluoro-5-hydroxyphenyl){6-[4-methyl-5-(o-tolyl)-1-pyrazolyl]-2-aza-2-spiro[3.3]heptyl}methanone], the IC50 [5] was 150 to 500 nM.
